In patent publication US10398672B2, “Methods and compositions for targeting cancer stem cells” (Whitehead Institute for Biomedical Research, priority 2014, dated 2019):

Tested on: NAMEC cells transformed with Ras
Details: mouse, in vivo

## cholera toxin
  loss of tumor-initiating ability compared to untreated NAMEC cells: 100 fold
